Where two headings read alike, the source gives them in different places. *1 amine or outer side, *2 acyl side, *3 side chain or, on linkers, in order; H or OH if unused. Where a SMILES comes first, the peptide text is derived from it. [ ]: non-standard residue; d: D form. X1 = N6‑isopropyl‑N6‑((1-methyl-1H-imidazol-5-yl)methyl)Lys, CC(C)N(CCCC[C@H](N[*:1])C(=O)[*:2])Cc1cncn1C; X2 = CC(C)N(CCCC[C@H](N[*:1])C(=O)[*:2])Cc1cncn1C; Phe(F5) = N[C@@H](Cc1c(F)c(F)c(F)c(F)c1F)C(=O)O; NMeA = CN[C@@H](C)C(=O)O; Inp = O=C(O)C1CCNCC1
How the values were obtained:
CDYL chromodomain = target: T1, CDYL chromodomain (Homo sapiens, UniProt Q9Y232); experiment: isothermal titration calorimetry; type: binding
T1 construct: chromodomain residues 1-78 of NP_004815, N-terminal GST tag (pGEX4T) removed by thrombin for ITC, E. coli Rosetta2 BL21(DE3)pLysS
T1 sequence (Q9Y232 1-78 isoform Q9Y232-2): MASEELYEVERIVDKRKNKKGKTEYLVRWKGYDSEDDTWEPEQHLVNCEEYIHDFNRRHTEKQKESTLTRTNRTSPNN

[1] = target: T2, chromodomain of CDYL2 (residues 1-75 of NP_689555) (UniProt Q8N8U2 1-75); experiment: AlphaScreen or HTRF; TR-FRET competition assay for CDYL2, dose-response; 20 mM tris pH 7.5, 150 mM NaCl, 0.05% Tween 20, 2 mM DTT; 1 h equilibration; tracer not named (ref. 30); settings: both partners purified
T2 construct: chromodomain Y-like protein 2 (CDYL2), chromodomain, residues 1-75 of NP_689555; source: E. coli Rosetta2 BL21(DE3)pLysS, purified (HisTrap FF, Superdex 75)
T2 sequence (looked up): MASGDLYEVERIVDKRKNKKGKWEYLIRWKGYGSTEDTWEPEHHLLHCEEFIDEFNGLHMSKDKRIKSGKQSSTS

[2] = target: T3, chromodomain of MPP8 (residues 55-116 of NP_059990) (UniProt Q99549-1 55-116); experiment: not stated; selectivity of UNC6261 among chromodomains (Figure S7); method not given; settings: both partners purified
T3 construct: M-phase phosphoprotein 8 (MPP8), chromodomain, residues 55-116 of NP_059990; source: E. coli Rosetta2 BL21(DE3)pLysS, purified (HisTrap FF, Superdex 75)
T3 sequence (looked up): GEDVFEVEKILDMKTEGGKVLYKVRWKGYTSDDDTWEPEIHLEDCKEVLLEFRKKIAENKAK

COC(=O)[C@H](CO)NC(=O)[C@H](CCCCN(Cc1cncn1C)C(C)C)NC(=O)[C@H](Cc1ccccc1)NC(=O)[C@H](C)NC(=O)[C@H](Cc1c(F)c(F)c(F)c(F)c1F)NC(=O)C1CCNCC1 [UNC6261, Methyl N ^6‐isopropyl‐N ^6‐((1‐methyl‐1H‐imidazol‐5‐yl)methyl)‐N ^2‐((S)‐3‐(perfluorophenyl)‐2‐(piperidine‐4‐carboxamido)propanoyl)‐L‐alanyl‐L‐phenylalanyl‐L‐lysyl‐L‐serinate] (H-[Inp][Phe(F5)]AF[X2]S-OMe)
Kd (CDYL chromodomain; read-out: Kd): 139 ± 3.3 nM

COC(=O)[C@H](CO)NC(=O)[C@H](CCCCN(Cc1cncn1C)C(C)C)NC(=O)[C@H](Cc1ccccc1)NC(=O)[C@H](C)N(C)C(=O)[C@H](Cc1c(F)c(F)c(F)c(F)c1F)NC(=O)C1CCNCC1 [UNC7394, Methyl N ^6‐isopropyl‐N ^6‐((1‐methyl‐1H‐imidazol‐5‐yl)methyl)‐N ^2‐N‐methyl‐N‐((S)‐3‐(perfluorophenyl)‐2‐(piperidine‐4‐carboxamido)propanoyl)‐L‐alanyl‐L‐phenylalanyl‐L‐lysyl‐L‐serinate] (H-[Inp][Phe(F5)][NMeA]F[X2]S-OMe)
Kd (CDYL chromodomain; read-out: no measurable binding): > 50000 nM

B1: UNC6261 (peptide)
peptide: {piperidine‑4‑carbonyl}-[Phe(F5)]AF[X1]S-OMe
notes: peptidomimetic pentapeptide; F1 stands for pentafluorophenylalanine, K4 for the dialkylated lysine mimetic; also called CDYL antagonist; source: synthetic, purified by reverse phase flash chromatography (TFA salt)
IC50 [1]: 81 ± 16 nM | fold selectivity for CDYL over MPP8 [2]: 13 fold

— PMC8981457, “Cdyl Deficiency Brakes Neuronal Excitability and Nociception through Promoting Kcnb1 Transcription in Peripheral Sensory Neurons” (Advanced Science, 2022)
